Measurements reported in US11083199B2, “Heterocycle derivatives as pesticides” (Bayer Aktiengesellschaft, priority 2017, dated 2021).

What was measured:
Type in all cases: in vivo
Tetranychus urticae = Tetranychus urticae spray test, OP-resistant; settings: foliar, 144 h, bean leaf discs, after 6 days, read-out: efficacy; for pest or weed control at 20 g/ha: application rate 20 g/ha; for pest or weed control at 100 g/ha: application rate 100 g/ha
Experimental: (§1) [table] To produce a suitable active ingredient formulation, 1 part by weight of active ingredient is dissolved with the specified parts by weight of solvent and made up to the desired concentration with water containing an emulsifier concentration of 1000 ppm. To produce further test concentrations, the formulation is diluted with emulsifier-containing water. Discs of bean leaves (Phaseolus vulgaris) infested with all stages of the greenhouse red spider mite (Tetranychus urticae) are sprayed with an active ingredient formulation of the desired concentration. After 6 days, the efficacy in % is determined. 100% means that all the spider mites have been killed; 0% means that no spider mites have been killed.

Phaedon cochleariae = Phaedon cochleariae spray test; settings: 168 h, larvae, after 7 days, read-out: efficacy; for pest or weed control at 100 g/ha: application rate 100 g/ha
Experimental: as §1, with “Chinese cabbage” for “bean”, “(Brassica pekinensis)” for “(Phaseolus vulgaris) infested with all stages of the greenhouse red spider mite (Tetranychus urticae)”, “concentration and, after drying, populated with larvae of the mustard beetle (Phaedon cochleariae).” for “concentration.”, “7” for “6”, “beetle larvae” for “spider mites”

Spodoptera frugiperda = Spodoptera frugiperda spray test; settings: foliar, 168 h, application rate 100 g/ha, maize leaf discs, caterpillars, after 7 days, read-out: efficacy
Experimental: [table] To produce a suitable active ingredient formulation, 1 part by weight of active ingredient is dissolved with the specified parts by weight of solvent and made up to the desired concentration with water containing an emulsifier concentration of 1000 ppm. To produce further test concentrations, the formulation is diluted with emulsifier-containing water. Leaf discs of maize (Zea mays) are sprayed with an active ingredient formulation of the desired concentration and, after drying, populated with caterpillars of the fall armyworm (Spodoptera frugiperda). After 7 days, the efficacy in % is determined. 100% means that all the caterpillars have been killed; 0% means that no caterpillar has been killed.

Myzus persicae [1] = assay: Myzus persicae spray test; settings: foliar, 120 h, application rate 100 g/ha, Chinese cabbage leaf discs, after 5 days, read-out: efficacy
Experimental: [table] To produce a suitable active ingredient formulation, 1 part by weight of active ingredient is dissolved with the specified parts by weight of solvent and made up to the desired concentration with water containing an emulsifier concentration of 1000 ppm. To produce further test concentrations, the formulation is diluted with emulsifier-containing water. Discs of Chinese cabbage leaves (Brassica pekinensis) infested by all stages of the green peach aphid (Myzus persicae) are sprayed with an active ingredient formulation of the desired concentration. After 5 days, the efficacy in % is determined. 100% means that all the aphids have been killed; 0% means that no aphids have been killed.

Myzus persicae [2] = assay: Myzus persicae oral test; settings: 120 h, application rate 4 ppm, after 5 days, read-out: efficacy
Experimental: [table] To produce a suitable active ingredient formulation, 1 part by weight of active ingredient is dissolved with the stated parts by weight of solvent and made up to the desired concentration with water. 50 μl of the active ingredient formulation are transferred into microtitre plates and made up to a final volume of 200 μl with 150 μl of IPL41 insect medium (33%+15% sugar). Subsequently, the plates are sealed with parafilm, which a mixed population of green peach aphids (Myzus persicae) within a second microtitre plate is able to puncture and imbibe the solution. After 5 days, the efficacy in % is determined. 100% means that all the aphids have been killed; 0% means that no aphids have been killed.

Lucilia cuprina = Lucilia cuprina test; settings: 48 h, application rate 100 ppm, L1 larvae, kill after 2 days, read-out: efficacy
Experimental: Solvent: dimethyl sulfoxide To produce a suitable active ingredient formulation, 10 mg of active ingredient are mixed with 0.5 ml of dimethyl sulfoxide, and the concentrate is diluted with water to the desired concentration. About 20 L1 larvae of the Australian sheep blowfly (Lucilia cuprina) are transferred into a test vessel containing minced horsemeat and the active ingredient formulation of the desired concentration. After 2 days, the kill in % is determined. 100% means that all the larvae have been killed; 0% means that no larvae have been killed.

Ctenocephalides felis [3] = assay: Ctenocephalides felis oral test; settings: 48 h, application rate 100 ppm in citrated cattle blood, kill after 2 days, read-out: efficacy
Experimental: Solvent: dimethyl sulfoxide To produce a suitable active ingredient formulation, 10 mg of active ingredient are mixed with 0.5 ml of dimethyl sulfoxide. Dilution with citrated cattle blood gives the desired concentration. About 20 unfed adult cat fleas (Ctenocephalides felis) are placed into a chamber which is closed at the top and bottom with gauze. A metal cylinder whose bottom end is closed with parafilm is placed onto the chamber. The cylinder contains the blood/active ingredient formulation, which can be imbibed by the fleas through the parafilm membrane. After 2 days, the kill in % is determined. 100% means that all of the fleas have been killed; 0% means that none of the fleas have been killed.

Ctenocephalides felis [4] = assay: Ctenocephalides felis in vitro contact test with adult cat fleas; settings: application rate 5 μg/cm^2 (=500 g/ha), adult cat fleas dead or moribund after 48 h, read-out: efficacy
Experimental: For the coating of the test tubes, 9 mg of active ingredient are first dissolved in 1 ml of acetone p.a. and then diluted to the desired concentration with acetone p.a. 250 μl of the solution are distributed homogeneously on the inner walls and the base of a 25 ml glass tube by turning and rocking on an orbital shaker (rocking rotation at 30 rpm for 2 h). With 900 ppm of active ingredient solution and internal surface area 44.7 cm^2, given homogeneous distribution, an area-based dose of 5 μg/cm^2 is achieved. After the solvent has evaporated off, the tubes are populated with 5-10 adult cat fleas (Ctenocephalides felis), sealed with a perforated plastic lid and incubated in a horizontal position at room temperature and ambient humidity. After 48 h, efficacy is determined. To this end, the tubes are stood upright and the fleas are knocked to the base of the tube. Fleas which remain motionless at the base or move in an uncoordinated manner are considered to be dead or moribund. […] 100% efficacy means that all the fleas were dead or moribund. 0% efficacy means that no fleas were harmed.

Compound | pest or weed control at 20 g/ha (Tetranychus urticae) | pest or weed control at 100 g/ha (Tetranychus urticae) | pest or weed control at 100 g/ha (Phaedon cochleariae) | pest or weed control at 100 g/ha (Spodoptera frugiperda) | pest or weed control at 100 g/ha (Myzus persicae [1]) | pest or weed control at 4 ppm (Myzus persicae [2]) | pest or weed control at 100 ppm (Lucilia cuprina) | pest or weed control at 100 ppm (Ctenocephalides felis [3]) | pest or weed control at 5 µg/cm2, 500 g/ha (Ctenocephalides felis [4]) | pest or weed control at 500 g/ha (Phaedon cochleariae; application rate 500 g/ha)
CCS(=O)(=O)c1c(-c2nc3cc(C(F)(F)F)ncc3n2C)nc(-c2ccc(C#N)c(Cl)c2)n1C [Example I-082] | 100% | 100% | 100% | 83% | 90% | 100% |  |  |  | 
CCS(=O)(=O)c1c(-c2nc3cc(C(F)(F)F)ncc3n2C)nc(-c2cncnc2)n1C [Example I-023] |  |  | 100% |  | 100% | 100% | 100% | 100% | 100% | 
CCS(=O)(=O)c1c(-c2nc3cc(C(F)(F)F)ncc3n2C)nc(-c2ccc(C3(C#N)CC3)c(F)c2)n1C [Example I-070] |  | 100% | 100% | 83% | 100% | 100% |  |  |  | 
CCS(=O)(=O)c1c(-c2nc3cc(C(F)(F)F)ncc3n2C)nc(-c2ccc(C(C)(C)C#N)cc2)n1C [Example I-066] |  | 90% |  |  | 70% | 100% |  |  |  | 83%
CCS(=O)(=O)c1c(-c2nc3cc(C(F)(F)F)ncc3n2C)nc(-c2cccnc2F)n1C [Example I-020] |  |  | 100% | 83% | 100% | 100% | 100% | 100% | 100% | 
CCS(=O)(=O)c1c(-c2nc3cc(C(F)(F)F)ncc3n2C)nc(-c2cnn(C)c2)n1C [Example I-042] | 90% |  | 100% |  | 90% | 100% |  |  |  | 
CCS(=O)(=O)c1c(-c2nc3cc(C(F)(F)F)ncc3n2C)nc(-c2ccncc2F)n1C [Example I-022] |  |  | 100% |  | 100% | 100% | 100% | 95% | 100% | 
CCS(=O)(=O)c1c(-c2nc3cc(C(F)(F)F)ncc3n2C)nc(-c2ccc(C3(C#N)CC3)cc2C)n1C [Example I-076] |  | 90% | 100% | 100% | 100% |  |  |  |  | 
CCS(=O)(=O)c1c(-c2nc3cc(C(F)(F)F)ncc3n2C)nc(-c2cnn(C3CC3)c2)n1C [Example I-055] |  | 90% | 100% |  | 90% | 100% | 100% | 100% |  | 
CCS(=O)(=O)c1c(-c2nc3cc(C(F)(F)F)ncc3n2C)nc(-c2ccccc2)n1C [Example I-003] |  |  |  |  | 90% | 100% | 100% | 100% | 100% | 
CCS(=O)(=O)c1c(-n2cc3ccc(C(F)(F)F)cc3n2)nc(-c2ccc(Cl)cc2)n1C [Example I-092] |  | 100% | 67% | 100% |  | 100% | 100% |  |  | 
CCS(=O)(=O)c1c(-c2nc3cc(C(F)(F)F)ncc3n2C)nc(-c2ccccn2)n1C [Example I-013] |  |  | 100% |  | 90% | 100% | 100% | 100% | 100% | 
CCS(=O)(=O)c1c(-c2nc3cc(C(F)(F)F)ncc3n2C)nc(-c2cccc(C3(C#N)CC3)c2)n1C [Example I-087] | 90% |  | 100% | 100% |  | 100% |  |  |  | 
